According to patent publication US20220125051A1, “PRE-HARVEST DESICCATION METHOD” (SYNGENTA CROP PROTECTION AG, priority 2019, published 2022):
Where two headings read alike, the source gives them in different places.

Legend:
Test in all cases: Post-emergence efficacy, Method A
Type in all cases: in vivo
[1] = system: Lolium perenne (LOLPE); conditions: Lolium perenne, post-emergence, 312 h, evaluated after 13 days
Description: (§1) Seeds of a variety of test species were sown in standard soil in pots. After cultivation for 14 days (post-emergence) under controlled conditions in a glasshouse (at 24/16° C., day/night; 14 hours light; 65% humidity), the plants were sprayed with an aqueous spray solution derived from the dissolution of the technical active ingredient formula (I) in a small amount of acetone and a special solvent and emulsifier mixture referred to as IF50 (11.12% Emulsogen EL360 TM+44.44% N-methylpyrrolidone+44.44% Dowanol DPM glycol ether), to create a 50 g/I solution which was then diluted to required concentration using 0.25% or 1% Empicol ESC70 (Sodium lauryl ether sulphate)+1% ammonium sulphate as diluent. The test plants were then grown in a glasshouse under controlled conditions (at 24/16° C., day/night; 14 hours light; 65% humidity) and watered twice daily. After 13 days the test was evaluated (100=total damage to plant; 0=no damage to plant).
(§2) Ipomoea hederacea (IPOHE), Euphorbia heterophylla (EPHHL), Chenopodium album (CHEAL), Amaranthus palmeri (AMAPA), Lolium perenne (LOLPE), Digitaria sanguinalis (DIGSA), Eleusine indica (ELEIN), Echinochloa crus-galli (ECHCG), Setaria faberi (SETFA)

[2] = system: Amaranthus palmeri (AMAPA); conditions: Amaranthus palmeri, post-emergence, 312 h; Application Rate 500 g/Ha; evaluated after 13 days; Method A; read-out: Control of weed species after post-emergence application, AMAPA (100=total damage to plant; 0=no damage to plant)
Description: as §1, §2

[3] = system: Echinochloa crus-galli (ECHCG); conditions: Echinochloa crus-galli, post-emergence, 312 h; Application Rate 500 g/Ha; evaluated after 13 days; Method A; read-out: Control of weed species after post-emergence application, ECHCG (100=total damage to plant; 0=no damage to plant)
Description: as §1, §2

[4] = system: Chenopodium album (CHEAL); conditions: Chenopodium album, post-emergence, 312 h; Application Rate 500 g/Ha; evaluated after 13 days; Method A; read-out: Control of weed species after post-emergence application, CHEAL (100=total damage to plant; 0=no damage to plant)
Description: as §1, §2

[5] = system: Eleusine indica (ELEIN); conditions: Eleusine indica, post-emergence, 312 h; Application Rate 500 g/Ha; evaluated after 13 days; Method A; read-out: Control of weed species after post-emergence application, ELEIN (100=total damage to plant; 0=no damage to plant)
Description: as §1, §2

[6] = system: Ipomoea hederacea (IPOHE); conditions: Ipomoea hederacea, post-emergence, 312 h, Application Rate 500 g/Ha; evaluated after 13 days; Method A; read-out: Control of weed species after post-emergence application, IPOHE (100=total damage to plant; 0=no damage to plant)
Description: as §1, §2

[7] = system: Setaria faberi (SETFA); conditions: Setaria faberi, post-emergence, 312 h; Application Rate 500 g/Ha; evaluated after 13 days; Method A; read-out: Control of weed species after post-emergence application, SETFA (100=total damage to plant; 0=no damage to plant)
Description: as §1, §2

[8] = system: Digitaria sanguinalis (DIGSA); conditions: Digitaria sanguinalis, post-emergence, 312 h; Application Rate 500 g/Ha; evaluated after 13 days; Method A; read-out: Control of weed species after post-emergence application, DIGSA (100=total damage to plant; 0=no damage to plant)
Description: as §1, §2

[9] = Application Rate 500 g/Ha, Method A, read-out: Control of weed species after post-emergence application, LOLPE (100=total damage to plant; 0=no damage to plant)

Row | SMILES | pest or weed control at 500 g/ha ([1]; Application rate 500 g/Ha, 100=total damage to plant, 0=no damage to plant, read-out: Control of weed species after post-emergence application, LOLPE) | pest or weed control at 500 g/ha [2] | pest or weed control at 500 g/ha [3] | pest or weed control at 500 g/ha [4] | pest or weed control at 500 g/ha [5] | pest or weed control at 500 g/ha [6] | pest or weed control at 500 g/ha [1, 9] | pest or weed control at 500 g/ha [7] | pest or weed control at 500 g/ha [8]
1 | O=C(O)CC[n+]1ccc(-c2ncccn2)cn1 [Compound A125, 3-(4-pyrimidin-2-ylpyridazin-1-ium-1-yl)propanoic acid 2,2,2-trifluoroacetate] | 90% | – | – | – | – | – | – | – | –
2 | N#Cc1ccc(-c2cc[n+](CCS(=O)(=O)[O-])nc2)nc1 [Compound A169] | – | 100% | 40% | 70% | 90% | 40% | 50% | 50% | 50%
3 | CC(C[n+]1ccc(-c2ccncn2)cn1)C(=O)O (centres unmarked) [Compound A171] | – | 100% | 60% | 80% | 80% | 80% | 70% | 60% | 60%
4 | N#Cc1ccc(-c2cc[n+](CCC(=O)O)nc2)nc1 [Compound A176] | – | 40% | 30% | 30% | 70% | 40% | 40% | 40% | 30%
5 | CC(CS(=O)(=O)[O-])[n+]1ccc(-c2ncccn2)cn1 (centres unmarked) [Compound A181, 2-(4-pyrimidin-2-ylpyridazin-1-ium-1-yl)propane-1-sulfonate] | – | 90% | 100% | 90% | 100% | 80% | 90% | 60% | 80%
6 | NC(=O)c1ccc(-c2cc[n+](CCCS(=O)(=O)[O-])nc2)nc1 [Compound A183] | – | 10% | 20% | 0% | 10% | 20% | 10% | 10% | 30%
7 | CC(CC[n+]1ccc(-c2ncccn2)cn1)S(=O)(=O)[O-] (centres unmarked) [Compound A185] | – | 100% | 40% | 80% | 30% | 30% | 30% | 50% | 30%
8 | OCC[n+]1ccc(-c2ncccn2)cn1 [Compound A195, 2-(4-pyrimidin-2-ylpyridazin-1-ium-1-yl)ethanol 2,2,2-trifluoroacetate] | – | – | 10% | 60% | 10% | 20% | 0% | – | 20%
9 | Cc1ccc(-c2cc[n+](CCC(=O)O)nc2)nc1 [Compound A199] | – | – | 20% | 40% | 10% | 10% | 0% | 30% | 50%
10 | O=P([O-])(O)C[n+]1ccc(-c2ncccn2)cn1 [Compound A205, hydroxy-[(4-pyrimidin-2-ylpyridazin-1-ium-1-yl)methyl]phosphinate] | – | 80% | 60% | 60% | 60% | 80% | 40% | 80% | 80%
11 | O=S(=O)([O-])N1CCCC1C[n+]1ccc(-c2ncccn2)cn1 (centres unmarked) [Compound A222] | – | 80% | 70% | 60% | 60% | 70% | 20% | 80% | 90%
12 | O=S(=O)([O-])CC(O)C[n+]1ccc(-c2ccncn2)cn1 (centres unmarked) [Compound A224] | – | 100% | 40% | 90% | 80% | 80% | 40% | 40% | 80%
13 | O=C(O)c1ccc(C[n+]2ccc(-c3ncccn3)cn2)cc1 [Compound A228] | – | 80% | 10% | 60% | 10% | 60% | 0% | 10% | 20%
14 | COC(=O)c1ccc(C[n+]2ccc(-c3ncccn3)cn2)cc1 [Compound A229] | – | 10% | 0% | 0% | 0% | 10% | 0% | 10% | 20%
15 | CCOP(=O)(C[n+]1ccc(-c2ncccn2)cn1)OCC [Compound A230, 1-(diethoxyphosphorylmethyl)-4-pyrimidin-2-yl-pyridazin-1-ium 2,2,2-trifluoroacetate] | – | 50% | 60% | 60% | 10% | 20% | 0% | 50% | 70%
16 | Cc1cc(-c2cc[n+](CCS(=O)(=O)[O-])nc2)nc(C)n1 [Compound A231] | – | 100% | 50% | 90% | 60% | 60% | 60% | 60% | 80%
17 | CCOP(=O)(O)CCC[n+]1ccc(-c2ncccn2)cn1 [Compound A232] | – | 100% | 100% | 90% | 50% | 0% | 20% | 80% | 90%
18 | O=P(O)(O)CCC[n+]1ccc(-c2ncccn2)cn1 [Compound A233] | – | 100% | 60% | 100% | 50% | 70% | 20% | 70% | 60%
